# Patent US20260158009A1 (GENZYME CORPORATION, priority 2023, published 2026)
# How the values were obtained:
# [1] = molecular target: T1, hRIPK1 (aa 1-375) fusion protein (Homo sapiens, UniProt Q13546); assay: ADP-Glo kinase assay: catalytic activity of RIPK1 (autophosphorylation, conversion of ATP to ADP); format: biochemical
# T1 construct: hRIPK1 (aa 1-375) fusion protein
# T1 sequence (Q13546 1-375): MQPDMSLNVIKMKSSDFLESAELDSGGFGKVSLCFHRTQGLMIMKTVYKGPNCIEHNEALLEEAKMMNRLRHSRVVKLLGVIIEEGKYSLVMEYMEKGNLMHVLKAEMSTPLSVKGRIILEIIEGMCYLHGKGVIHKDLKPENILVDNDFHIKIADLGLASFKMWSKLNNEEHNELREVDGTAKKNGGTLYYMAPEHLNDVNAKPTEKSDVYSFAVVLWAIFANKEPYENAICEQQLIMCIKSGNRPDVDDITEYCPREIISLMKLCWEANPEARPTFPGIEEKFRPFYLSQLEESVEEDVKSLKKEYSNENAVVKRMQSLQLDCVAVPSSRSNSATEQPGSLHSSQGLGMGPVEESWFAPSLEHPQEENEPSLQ
# Method in brief: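 hRIPK1 (aa 1-375) fusion protein (3.6 μg/ml final) was preincubated 30 min at rt with compound (33300-1.69 nM, 1% DMSO), then 50 μM ATP was added for 240 min at rt. ADP from autophosphorylation was measured by ADP-Glo luminescence and curves fitted by nonlinear regression.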
# U937 cells = assay: Cellular assay in U937 cells: activity of RIPK1 inhibitors on TNFα/zVAD.fmk-induced cell death (necroptosis), CellTiter 96 AQueous (MTS) readout; format: cell-based; settings: Homo sapiens, U-937
# Method in brief: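 Necroptosis was measured by viable-cell MTS reduction (4 h, absorbance 490 nm) after overnight (18–24 h) 37° C culture. Cell suspensions of U937 cells carried TNFα (100 ng/ml) plus zVAD.fmk (50 μM) before compound was added. A 10-point curve (10 μM–0.26 nM or 1 μM–0.07 nM) was run in duplicate, normalised to the control lacking TNFα/zVAD.fmk.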
SMILES,IC50 [1] [nM],IC50 (U937 cells) [nM]
"N#Cc1cc(F)cc([C@@H]2CCON2C(=O)[C@H]2CC[C@H](Cn3cnc4ccccc43)CC2)c1 [compound 7, trans-3-((S)-2-(4-((1H-benzo[d]imidazol-1-yl)methyl)cyclohexane-1-carbonyl)isoxazolidin-3-yl)-5-fluorobenzonitrile]",15,9
"N#Cc1cc(F)cc([C@@H]2CCON2C(=O)[C@H]2CC[C@H](Cn3ncc4ncc(C(N)=O)cc43)CC2)c1 [compound 78, trans-1-((4-((S)-3-(3-cyano-5-fluorophenyl)isoxazolidine-2-carbonyl)cyclohexyl)methyl)-1H-pyrazolo[4,3-b]pyridine-6-carboxamide]",40,72
"N#Cc1cc(F)cc([C@@H]2CCON2C(=O)[C@H]2CC[C@H](Cn3ccc4cnccc43)CC2)c1 [compound 15, trans-3-((S)-2-(4-((1H-pyrrolo[3,2-c]pyridin-1-yl)methyl)cyclohexane-1-carbonyl)isoxazolidin-3-yl)-5-fluorobenzonitrile]",46,11
"Cc1cc(C)n(-c2cc(C[C@H]3CC[C@H](C(=O)N4OCC[C@H]4c4cc(F)cc(C#N)c4)CC3)ncn2)n1 [compound 124, trans-3-[(3S)-2-[4-[[6-(3,5-dimethylpyrazol-1-yl)pyrimidin-4-yl]methyl]cyclohexanecarbonyl]isoxazolidin-3-yl]-5-fluoro-benzonitrile]",26,68
"N#Cc1cc(F)cc([C@@H]2CCON2C(=O)[C@H]2CC[C@H](Cn3ccc4ncc(OC5COC5)cc43)CC2)c1 [compound 146, trans-3-fluoro-5-[(3S)-2-[4-[[6-(oxetan-3-yloxy)pyrrolo[3,2-b]pyridin-1-yl]methyl]cyclohexanecarbonyl]isoxazolidin-3-yl]benzonitrile]",28,26
"N#Cc1cc(F)c2ccn(C[C@H]3CC[C@H](C(=O)N4OCC[C@H]4c4cc(F)cc(F)c4)CC3)c2c1 [compound 45, trans-1-((4-((S)-3-(3,5-difluorophenyl)isoxazolidine-2-carbonyl)cyclohexyl)methyl)-4-fluoro-1H-indole-6-carbonitrile]",18,6
"N#Cc1cc(F)cc([C@@H]2CCON2C(=O)[C@H]2CC[C@H](Cn3cnc4cc(F)ccc43)CC2)c1 [compound 48, trans-3-fluoro-5-((S)-2-(4-((5-fluoro-1H-benzo[d]imidazol-1-yl)methyl)cyclohexane-1-carbonyl)isoxazolidin-3-yl)benzonitrile]",25,15
"O=C([C@H]1CC[C@H](Cn2ccc3ncc(Cl)cc32)CC1)N1OCC[C@H]1c1cc(F)cc(F)c1 [compound 21, trans-(4-((6-chloro-1H-pyrrolo[3,2-b]pyridin-1-yl)methyl)cyclohexyl)((S)-3-(3,5-difluorophenyl)isoxazolidin-2-yl)methanone]",25,5
"NC(=O)c1cc2c(cc1F)ncn2C[C@H]1CC[C@H](C(=O)N2OCC[C@H]2c2cc(F)cc(F)c2)CC1 [compound 71, trans-1-((4-((S)-3-(3,5-difluorophenyl)isoxazolidine-2-carbonyl)cyclohexyl)methyl)-5-fluoro-1H-benzo[d]imidazole-6-carboxamide]",37,93
"N#Cc1cc(F)cc([C@@H]2CCON2C(=O)[C@H]2CC[C@H](Cc3ccc4ncnn4c3)CC2)c1 [compound 142, trans-3-fluoro-5-[(3S)-2-[4-([1,2,4]triazolo[1,5-a]pyridin-6-ylmethyl)cyclohexanecarbonyl]isoxazolidin-3-yl]benzonitrile]",38,4
"O=C1NCc2ccc(C[C@H]3CC[C@H](C(=O)N4OCC[C@H]4c4cnccn4)CC3)cc21 [compound 145, trans-6-[[4-[(3S)-3-pyrazin-2-ylisoxazolidine-2-carbonyl]cyclohexyl]methyl]isoindolin-1-one]",29,16

# Further lines, with some results ahead:
IC50 [1] [nM],SMILES,IC50 (U937 cells) [nM]
13,"COc1cncc([C@@H]2CCON2C(=O)[C@H]2CC[C@H](Cn3ncc4ccc(C#N)cc43)CC2)n1 [compound 190, trans-1-[[4-[(3S)-3-(6-methoxypyrazin-2-yl)isoxazolidine-2-carbonyl]cyclohexyl]methyl]indazole-6-carbonitrile]",4
26,"Cc1ncc(F)cc1C[C@H]1CC[C@H](C(=O)N2OCC[C@H]2c2cc(F)cc(C#N)c2)CC1 [compound 181, trans-3-fluoro-5-[(3S)-2-[4-[(5-fluoro-2-methyl-3-pyridyl)methyl]cyclohexanecarbonyl]isoxazolidin-3-yl]benzonitrile]",2
243,"Cc1ccc([C@@H]2CCON2C(=O)[C@H]2CC[C@H](Cc3cnc(C)nc3)CC2)cn1 [compound 344, trans-[(3S)-3-(6-methylpyridin-3-yl)-1,2-oxazolidin-2-yl]-[4-[(2-methylpyrimidin-5-yl)methyl]cyclohexyl]methanone]",173
9,"COCCOc1cnc2ccn(C[C@H]3CC[C@H](C(=O)N4OCC[C@H]4c4cc(F)cc(C#N)c4)CC3)c2c1 [compound 149, trans-3-fluoro-5-[(3S)-2-[4-[[6-(2-methoxyethoxy)pyrrolo[3,2-b]pyridin-1-yl]methyl]cyclohexanecarbonyl]isoxazolidin-3-yl]benzonitrile]",8
20,"Cc1cncc([C@@H]2CCON2C(=O)[C@H]2CC[C@H](Cc3cc(C)c4ncnn4c3)CC2)c1 [compound 334, trans-[(3S)-3-(5-methylpyridin-3-yl)-1,2-oxazolidin-2-yl]-[4-[(8-methyl-[1,2,4]triazolo[1,5-a]pyridin-6-yl)methyl]cyclohexyl]methanone]",35
30,"Cc1cncc([C@@H]2CCON2C(=O)[C@H]2CC[C@H](Cc3cc(F)c4nc(C)nn4c3)CC2)c1 [compound 333, trans-[4-[(8-fluoro-2-methyl-[1,2,4]triazolo[1,5-a]333yrdine-6-yl)methyl]cyclohexyl]-[(3S)-3-(5-methylpyridin-3-yl)-1,2-oxazolidin-2-yl]methanone]",55
17,"N#Cc1cncc([C@@H]2CCON2C(=O)[C@H]2CC[C@H](Cn3ccc4cc(C(N)=O)ccc43)CC2)c1 [compound 252, trans-1-[[4-[(3S)-3-(5-cyano-3-pyridyl)isoxazolidine-2-carbonyl]cyclohexyl]methyl]indole-5-carboxamide]",54
20,"N#Cc1ccc2c(cnn2C[C@H]2CC[C@H](C(=O)N3OCC[C@H]3c3cnccn3)CC2)c1 [compound 218, trans-1-[[4-[(3S)-3-pyrazin-2-ylisoxazolidine-2-carbonyl]cyclohexyl]methyl]indazole-5-carbonitrile]",13
35,"Cn1cc(C[C@H]2CC[C@H](C(=O)N3OCC[C@H]3c3cncc(C#N)c3)CC2)cn1 [compound 235, trans-5-[(3S)-2-[4-[(1-methylpyrazol-4-yl)methyl]cyclohexanecarbonyl]isoxazolidin-3-yl]pyridine-3-carbonitrile]",152
8,"O=C([C@H]1CC[C@H](Cc2ccc(CO)c(F)c2)CC1)N1OCC[C@H]1c1cc(F)cc(F)c1 [compound 265, trans-[(3S)-3-(3,5-difluorophenyl)isoxazolidin-2-yl]-[4-[[3-fluoro-4-(hydroxymethyl)phenyl]methyl]cyclohexyl]methanone]",1
12,"Cc1ncc(C[C@H]2CC[C@H](C(=O)N3OCC[C@H]3c3cc(F)cc(F)c3)CC2)cc1C#N [compound 267, trans-5-[[4-[(3S)-3-(3,5-difluorophenyl)isoxazolidine-2-carbonyl]cyclohexyl]methyl]-2-methyl-pyridine-3-carbonitrile]",2
23,"COc1cncc([C@@H]2CCON2C(=O)[C@H]2CC[C@H](Cn3ncc4ncc(C#N)cc43)CC2)n1 [compound 186, trans-1-[[4-[(3S)-3-(6-methoxypyrazin-2-yl)isoxazolidine-2-carbonyl]cyclohexyl]methyl]pyrazolo[4,3-b]pyridine-6-carbonitrile]",39
14,"Cn1ncc2ncc(C[C@H]3CC[C@H](C(=O)N4OCC[C@H]4c4cc(F)cc(F)c4)CC3)cc21 [compound 297, trans-[(3S)-3-(3,5-difluorophenyl)isoxazolidin-2-yl]-[4-[(1-methylpyrazolo[4,3-b]pyridin-6-yl)methyl]cyclohexyl]methanone]",7
81,"Cc1ccc([C@@H]2CCON2C(=O)[C@H]2CC[C@H](Cc3cc(F)c4nc(C)nn4c3)CC2)cn1 [compound 341, trans-[4-[(8-fluoro-2-methyl-[1,2,4]triazolo[1,5-a]pyridin-6-yl)methyl]cyclohexyl]-[(3S)-3-(6-methylpyridin-3-yl)-1,2-oxazolidin-2-yl]methanone]",114
